Common to all, as to assay type: in vivo
For assay [1], the system named is butterhead lettuce. The experiment in a line: Cultivation of butterhead lettuce, uptake of nutrients. To be noted: aboveground parts, dry mass, 20th day, two sprays, 0.0085% Ti. As to the method: TiO(OH)(C6H7O6).1H2O was used in the amount of 9.7 g/ha (0.005%, 0.0085% Ti), (TiO(C6H7O6)2.2H2O) was used in the amount of 16.3 g/ha (0.008%, 0.0085% Ti), TiO(C6H7O6)3.3H2O was used in the amount of 22.9 g/ha (0.011%, 0.0085% Ti), TiO(C6H7O6)4.5H2O was used in the amount of 30.9 g/ha (0.015%, 0.0085% Ti) in a single spray after previously dissolving them in 200 l of water. The spraying was performed with a manual sprayer at the smallest possible drop setting. Plants were sprayed evenly from a distance of about 30 cm.
Substrate: a mixture of peat deacidified with chalk (producer: Hollas) and rinsed quartz sand with a granulation of 4-8 mm. Volume ratio of the mixture: 1:4. Agrofoska (Intermag) fertiliser in the amount of 3 kg/m^3 was added to the substrate. Pots with a volume of about 3 l were used.
Spraying was performed twice with the preparation with the same concentrations of working liquid: spray 1 on the 7th day of the experiment; spray 2 on the 14th day of the experiment.
The experiment was randomised and there were 10 repetitions for each combination (1 repetition=one pot)
(§1) The content of nutrients was tested in the aboveground parts of plants, based on dry mass content.

The test system of assay [2] is wheat. The experiment in a line: Cultivation of wheat, chlorophyll content and uptake of nutrients. To be noted: for Content of chlorophyll in leaves: 20th day of the experiment; for Fe content / K content / P content / Ti content / Zn content: aboveground parts, dry mass, 20th day. As to the method:
Experiments for the use of titanium complex in the solid formulation TiO(Asc)2.2H2O on wheat were performed analogously to Example 14.
as §1

In assay [3] the test system is rape. The experiment in a line: Cultivation of rape, vegetative mass and uptake of nutrients. As to conditions: for Number of plant leaves / Total wet mass of the aboveground part / Wet mass of leaves / Wet mass of stem: 20th day of the experiment; for Fe content / Mg content / Mn content / P content / Si content / Ti content / Zn content: aboveground parts, dry mass, 20th day. As to the method: Experiments for the use of titanium complex for rape were performed analogously to Example 14.
as §1

For the molecule titanyl ascorbate [TiO(C6H7O6)3•3H2O], in assay [1], the B content stood at 72.35 mg/kg, the Ca content amounted to 17.84 g/kg, the Cu content is 5.46 mg/kg and the Fe content is on record as 842.63 mg/kg. Also, in assay [1], the K content came to 6.97 g/kg, the Mg content stood at 6.03 g/kg, the Mn content was determined as 757.37 mg/kg and the Si content was 257.62 mg/kg. In assay [1], the Ti content is recorded as 2.37 mg/kg and the Zn content worked out at 155.38 mg/kg. In addition, in assay [2], the “Content of chlorophyll in leaves” value was 45.60 SPAD, the Fe content is listed as 97.390 mg/kg, the K content was found to be 57.22 g/kg and the P content was found to be 9.47 g/kg. For the same molecule, in assay [2], the Ti content stood at 1.311 mg/kg and the Zn content is listed as 51.410 mg/kg. Moreover, in assay [3], the “Number of plant leaves” value was 7.94, the “Total wet mass of the aboveground part” value is on record as 39.61, the “Wet mass of leaves” value worked out at 17.74 g and the “Wet mass of stem” value worked out at 21.58 g. Further, in assay [3], the Fe content came to 1739.07 mg/kg, the Mg content is 7.86 g/kg, the Mn content is listed as 1440.47 mg/kg and the P content is on record as 11.43 g/kg. In assay [3], this molecule gave a Si content of 159.40 mg/kg, a Ti content of 1.07 mg/kg and a Zn content of 413.68 mg/kg.

As to titanyl ascorbate [TiO(C6H7O6)4•5H2O], in assay [2], the “Content of chlorophyll in leaves” value amounted to 47.06 SPAD, the Fe content was 100.910 mg/kg, the K content was 53.29 g/kg and the P content turned out to be 10.09 g/kg. In assay [2], this molecule came in with a Ti content of 1.150 mg/kg and a Zn content of 44.290 mg/kg.

Consider `O.O=C1OC(C(O)CO)C([O-])=C1O.[OH-].[O]=[Ti+2]` (centres unmarked) [TiO(OH)(C6H7O6)•1H2O, titanyl ascorbate], for which, in assay [2], the “Content of chlorophyll in leaves” value came to 47.17 SPAD, the Fe content came out at 96.280 mg/kg, the K content was 57.21 g/kg and the P content is given as 9.86 g/kg. Further, in assay [2], the Ti content is reported as 1.444 mg/kg and the Zn content came to 47.880 mg/kg. Besides, in assay [3], the “Number of plant leaves” value is given as 8.28, the “Total wet mass of the aboveground part” value stood at 38.3, the “Wet mass of leaves” value was 19.00 g and the “Wet mass of stem” value was 21.53 g. In assay [3], this molecule registered a Fe content of 1957.19 mg/kg, a Mg content of 8.859 g/kg, a Mn content of 1350.53 mg/kg and a P content of 8.74 g/kg. In assay [3], this molecule registered a Si content of 118.21 mg/kg, a Ti content of 1.55 mg/kg and a Zn content of 362.63 mg/kg.

The values are drawn from patent publication US12022830B2, “Formulations of metal and ascorbic acid complexes, their obtaining and use” (INTERMAG SP. Z O.O., priority 2017, dated 2024).
